In patent US11807852B2, “Compositions and methods for reactivating latent immunodeficiency virus” (The J. David Gladstone Institutes, a testamentary trust …, priority 2014, dated 2023):
“Also recorded” adds a separate entry of the source.

Tests used:
[1] = tested on: J-Lat cells (clone A2: LTR-Tat-IRES-GFP); type: cell-based
Procedure: To test this hypothesis, J-Lat cells (clone A2: LTR-Tat-IRES-GFP) were treated with SMYD2 inhibitors. […] Both cell lines were co-treated with X2 and Ingenol 3,20-dibenzoate (a protein kinase C (PKC) activator), JQ1 (BET-bromodomain inhibitor), or the histone deacetylase (HDAC) inhibitor suberoylanilidehydroxamic acid (SAHA).

[2] = tested on: A2 J-Lat cells, A72 J-Lat cells, and primary CD4+ T cells; test: ApoTox-Glo Triplex Assay: viability, cytotoxicity, caspase-3/7; type: cell-based; details: A2, A72 J-Lat cells and primary CD4+ T cells from 2 blood donors
Procedure: FIGS. 22A-D provide data showing the viability, cytotoxicity and apoptosis of cells treated with SMYD2 inhibitor X2. ApoTox-Glo™ Triplex Assays (Promega) were performed in AZ391-treated A2 J-Lat cells (A), A72 J-Lat cells (B), and primary CD4^+ T cells from 2 independent blood donors (C) and (D). […] All measurements were repeated at least three times and an average of one experiment of three technical replicates (±SD) is shown.

[3] = tested on: CD4+ T cells from HIV-1-infected individuals; test: T-cell activation markers CD69 and CD25, flow cytometry; type: cell-based, human; details: at the indicated concentrations (up to 500 nM)
From the text: FIGS. 15 A-G depict the structural formulae for AZ505, AZ506, and AZ391, and the reactivation of latent HIV-1 with SMYD2 inhibitor X2 (AZ391) in CD4^+ T cells from HIV-1 infected individuals. (A) Structures of each compound are shown. (B) Intracellular HIV-1 mRNA levels in CD4^+ T cells, obtained from an infected individual (#1036) and treated ex vivo with AZ391, JQ1 or a combination of both, in indicated concentrations, presented as fold induction relative to DMSO control. Activation with αCD3/αCD28-Dynabeads was performed as control. (C) Flow cytometry of T-cell activation markers CD69 and CD25 in the same experiment. For each treatment group, CD69^+ (left) and CD25^+ (right). Shown as percentage of positive cells relative to αCD3/αCD28-treated cells (D) Cell viability as measured by CellTiter-Blue® Cell Viability assay (Promega) and Zombie Violet Fixable Viability kit (BioLegend) and presented as percentage of DMSO control treated cells. Data points indicate average of three technical replicates of donor #1036. (E-G) Same experiments as in b-d but performed with CD4^+ T cells obtained from three additional individuals (2013, 2185, 2511) with a single concentration of AZ391 (500 nM). In f and g, average of the three biological replicates (±SD) is show. For (F), for each treatment group, CD69^+ (left) and CD25^+ (right). […]

[4] = tested on: CD4+ T cells from HIV-1-infected individuals; test: Cell viability (CellTiter-Blue, Zombie Violet) of ex vivo treated CD4+ T cells; type: cell-based, human; details: at the indicated concentrations (up to 500 nM)
From the text: FIGS. 15 A-G depict the structural formulae for AZ505, AZ506, and AZ391, and the reactivation of latent HIV-1 with SMYD2 inhibitor X2 (AZ391) in CD4^+ T cells from HIV-1 infected individuals. (A) Structures of each compound are shown. (B) Intracellular HIV-1 mRNA levels in CD4^+ T cells, obtained from an infected individual (#1036) and treated ex vivo with AZ391, JQ1 or a combination of both, in indicated concentrations, presented as fold induction relative to DMSO control. Activation with αCD3/αCD28-Dynabeads was performed as control. (C) Flow cytometry of T-cell activation markers CD69 and CD25 in the same experiment. For each treatment group, CD69^+ (left) and CD25^+ (right). Shown as percentage of positive cells relative to αCD3/αCD28-treated cells (D) Cell viability as measured by CellTiter-Blue® Cell Viability assay (Promega) and Zombie Violet Fixable Viability kit (BioLegend) and presented as percentage of DMSO control treated cells. Data points indicate average of three technical replicates of donor #1036. (E-G) Same experiments as in b-d but performed with CD4^+ T cells obtained from three additional individuals (2013, 2185, 2511) with a single concentration of AZ391 (500 nM). In f and g, average of the three biological replicates (±SD) is show. For (F), for each treatment group, CD69^+ (left) and CD25^+ (right).

[5] = tested on: latent HIV-1 in human lymphocyte aggregate cultures (HLAC) from tonsils; test: Ex vivo infected tonsil HLAC latency model, HIV-luciferase reporter virus; type: cell-based; details: in combination with JQ1
Procedure: HLAC cells were isolated by Ficoll-Histopaque density gradient centrifugation of sheared tonsils from HIV-seronegative donors (Vanderbilt University Medical Center, Nashville, Tenn.). Isolated HLAC cells were counted, collected as pellets by centrifugation at 1500 rpm for 5 min at room temperature, and re-suspended in the appropriate volume of concentrated viral NL4.3-Luc supernatant. Typically, 50-100 ng of p24 Gag per […] HLAC were used. Spinoculations were performed in 96-well V-bottom plates in volumes of 200 μl or less. Cells and virus were centrifuged at 2000 rpm for 1.5-2 h at room temperature. After spinoculation, cells were pooled and cultured at 1×10^6 cells/ml in RPMI 1640 containing 10% FBS and supplemented with 5 μM Saquinavir (Sigma-Aldrich) for 3 days to prevent any residual spreading infection.
For reactivation of latent HIV-1 provirus, cells were counted and collected as pellets by centrifugation at 1500 rpm for 10 min. […] After 15 min of lysis, the luciferase activity in cell extracts was quantified with a Perkin Elmer EnSpire 2300 Multimode plate reader after mixing 20 μl of lysate with 100 μl of substrate (Luciferase Assay System-Promega). Relative light units (RLU) were normalized to protein content determined by Bradford assay (BioRad). Cell viability was measured with CellTiter-Blue Cell Viability Assay (Promega).

[6] = cited from earlier work

N#Cc1cc(C(=O)NCCCN2CCCC2)cc(-c2ccccc2N2CCN(CCc3c[nH]c4ccccc34)CC2)c1 [AZ391]
GFP-expressing cells compared with control-treated cells ([1]; A2 J-Lat cells): up to threefold more GFP-expressing cells than control-treated cells | activation of HIV transcription / reactivation of the HIV-LTR (GFP) ([1]; A2 J-Lat cells, single agent): activated HIV transcription in a dose-dependent manner | cell death ([1]; at the concentration that effectively activated HIV transcription): slight increase in cell death | viability, cytotoxicity and caspase-3/7 activity [2]: reduced cell viability and increased cytotoxicity and caspase-3/7 activity at concentrations above 5 μM; also recorded: did not reduce viability nor increase cytotoxicity and caspase-3/7 activity at concentrations lower than 5 μM | global T-cell activation (CD69, CD25) [3]: No increase in global T-cell activation | cell viability [4]: no impact on cell viability | reactivation of latent HIV-1 (luciferase) [5]: Positive effects | reactivation of latent HIV-1 (luciferase) ([5]; listed as X2): reactivates latent HIV-1 | cell permeability [6]: cell-permeable
